Test results reported in patent publication US12180207B2 (ARRAY BIOPHARMA INC., priority 2018, dated 2024).

Columns and labels:
[1] = biological target: T1, HEK-293 cells transfected with dox-inducible human wild type FGFR3 (Homo sapiens (Human), UniProt P22607); test: FGFR3 pFGFR cell assay (ELISA); type: cell-based; conditions: HEK-293 dox-inducible FGFR3, 1 hour compound, 100 ng/ml FGF-acidic
How it was run: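 Doxycycline-induced (1 μg/ml) HEK-293 cells expressing wild-type human FGFR3, treated 1 h with compound (1:3 series, top final 5 μM), then stimulated 5 min with 100 ng/ml FGF-acidic. Phospho-FGFR3 measured by ELISA (total FGFR3 capture, phosphotyrosine detection, OD 450 nm); IC50 from 4-parameter fit of POC values.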

[2] = biological target: dephosphorylated FGFR1 (SEQ ID NO: 1, amino acids 458 to 765) (Homo sapiens (Human), UniProt P11362); test: FGFR enzyme binding assay (HTRF tracer displacement), FGFR1; conditions: 5 nM dephosphorylated FGFR1, average of multiple determinations if made
How it was run: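 Compounds were tested for displacement of a tracer from human FGFR kinase in a time-resolved FRET binding format. After 60 minutes at 22° C, signal was read at two wavelengths and converted to percent of control, normalised between untreated wells and 1 μM reference inhibitor.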

[3] = biological target: FGFR1 (SEQ ID NO: 1, amino acids 458-765) (Homo sapiens (Human), UniProt P11362); test: LC/MS FGFR1 kobs assay (covalent protein modification); type: binding; conditions: 500 nM FGFR1, 3 μM compound
How it was run: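 Covalent labeling of FGFR1 kinase domain (aa 458-765) tracked over time by intact-protein LC/MS after formic acid quench. kobs derived by fitting DMSO-normalized percent unmodified FGFR1 to an exponential decay model.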

[4] = biological target: HEK-293 cells transfected with dox-inducible human wild type FGFR1 (Homo sapiens (Human), UniProt P11362); test: FGFR1 pERK cell assay; type: cell-based; conditions: HEK-293 dox-inducible FGFR1, 1 hour compound, 100 ng/ml FGF-acidic; maximum concentration 5 μM
How it was run: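 In HEK-293 cells with dox-induced human wild-type FGFR1, compounds (1:3 dilutions, top 5 μM final) were applied 1 h at 37°C before 5 min stimulation with 100 ng/ml FGF-acidic. Phospho-ERK1/2 measured by MSD sandwich immunoassay; IC50 from 4-parameter fit of POC versus vehicle and control compound.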

[5] = biological target: T1, HEK-293 cells transfected with dox-inducible human wild type FGFR3; test: FGFR3 pERK cell assay; type: cell-based; conditions: HEK-293 dox-inducible FGFR3, 1 hour compound, 100 ng/ml FGF-acidic; maximum concentration 5 μM
How it was run: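 Doxycycline-induced cells preincubated 1 h at 37 °C with compound (1:3 dilutions, top 5 μM final), then stimulated 5 min with 100 ng/ml FGF-acidic. Lysate phospho-ERK1/2 measured by MSD sandwich assay; IC50 at 50 POC from 4-parameter fit, normalised to no-compound and control-compound wells.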

T1 sequence (P22607 23-806): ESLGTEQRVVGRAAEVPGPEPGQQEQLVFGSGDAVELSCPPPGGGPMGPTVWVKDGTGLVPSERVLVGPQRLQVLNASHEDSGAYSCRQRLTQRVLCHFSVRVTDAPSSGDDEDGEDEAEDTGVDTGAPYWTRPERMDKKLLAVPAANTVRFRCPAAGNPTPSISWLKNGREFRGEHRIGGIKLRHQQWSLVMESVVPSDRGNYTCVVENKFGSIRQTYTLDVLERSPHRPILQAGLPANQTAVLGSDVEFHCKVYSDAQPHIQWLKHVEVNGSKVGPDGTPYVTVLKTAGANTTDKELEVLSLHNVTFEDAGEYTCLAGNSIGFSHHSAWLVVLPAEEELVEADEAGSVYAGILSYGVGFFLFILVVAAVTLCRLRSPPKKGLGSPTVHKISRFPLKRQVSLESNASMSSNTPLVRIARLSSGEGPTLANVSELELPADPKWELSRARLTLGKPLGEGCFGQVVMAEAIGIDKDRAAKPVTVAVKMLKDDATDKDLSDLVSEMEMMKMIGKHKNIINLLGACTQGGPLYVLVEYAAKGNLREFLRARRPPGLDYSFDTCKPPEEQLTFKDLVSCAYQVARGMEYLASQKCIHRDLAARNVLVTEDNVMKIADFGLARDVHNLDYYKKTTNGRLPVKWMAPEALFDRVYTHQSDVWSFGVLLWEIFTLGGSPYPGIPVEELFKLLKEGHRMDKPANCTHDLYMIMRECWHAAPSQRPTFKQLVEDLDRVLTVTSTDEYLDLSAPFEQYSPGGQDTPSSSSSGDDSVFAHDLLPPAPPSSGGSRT
Sequence of FGFR1 (SEQ ID NO: 1, amino acids 458-765) (P11362 458-765): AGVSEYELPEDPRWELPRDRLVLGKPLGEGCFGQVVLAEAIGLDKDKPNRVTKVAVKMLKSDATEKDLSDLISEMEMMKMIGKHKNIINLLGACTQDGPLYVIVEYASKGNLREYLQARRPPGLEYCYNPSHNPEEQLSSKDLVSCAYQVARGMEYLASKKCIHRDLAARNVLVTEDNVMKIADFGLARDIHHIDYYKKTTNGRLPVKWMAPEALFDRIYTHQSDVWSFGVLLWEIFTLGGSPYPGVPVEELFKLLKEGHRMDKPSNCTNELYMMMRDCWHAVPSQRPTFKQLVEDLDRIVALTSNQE
Sequence of dephosphorylated FGFR1 (SEQ ID NO: 1, amino acids 458 to 765) (P11362 458-765): as above
Sequence of HEK-293 cells transfected with dox-inducible human wild type FGFR1 (P11362 22-822): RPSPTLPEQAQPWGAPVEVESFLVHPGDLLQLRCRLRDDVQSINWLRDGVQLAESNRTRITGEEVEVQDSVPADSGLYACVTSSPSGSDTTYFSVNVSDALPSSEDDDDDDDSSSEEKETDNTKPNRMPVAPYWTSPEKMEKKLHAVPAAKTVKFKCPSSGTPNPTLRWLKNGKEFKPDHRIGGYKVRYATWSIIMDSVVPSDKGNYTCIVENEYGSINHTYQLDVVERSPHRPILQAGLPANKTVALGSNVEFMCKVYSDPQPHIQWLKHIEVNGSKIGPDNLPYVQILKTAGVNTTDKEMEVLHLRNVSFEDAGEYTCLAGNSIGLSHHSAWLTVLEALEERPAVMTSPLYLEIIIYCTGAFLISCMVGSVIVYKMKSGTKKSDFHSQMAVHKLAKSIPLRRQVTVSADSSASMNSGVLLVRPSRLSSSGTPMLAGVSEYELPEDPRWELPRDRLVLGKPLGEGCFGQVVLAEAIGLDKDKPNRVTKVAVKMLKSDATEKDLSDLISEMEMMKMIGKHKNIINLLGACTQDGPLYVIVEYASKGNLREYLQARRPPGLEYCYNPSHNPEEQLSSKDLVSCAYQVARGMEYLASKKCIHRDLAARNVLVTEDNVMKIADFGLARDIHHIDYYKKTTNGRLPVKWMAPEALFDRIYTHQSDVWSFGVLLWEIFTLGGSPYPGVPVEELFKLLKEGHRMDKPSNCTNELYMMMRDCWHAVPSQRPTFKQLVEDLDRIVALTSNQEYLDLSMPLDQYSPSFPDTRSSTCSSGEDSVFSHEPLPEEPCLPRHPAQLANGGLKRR

Row | SMILES | IC50 [1] | IC50 [2] | FGFR1 Enz kobs [3] | IC50 [4] | IC50 [5]
1 | C=CC(=O)Nc1ccc(C(=O)N2CC[C@H](n3cc(-c4cc(OC)c5c(C#N)cnn5c4)cn3)C2)c(C)c1 [Example 68, (S)-N-(4-(3-(4-(3-cyano-4-methoxypyrazolo[1,5-a]pyridin-6-yl)-1H-pyrazol-1-yl)pyrrolidine-1-carbonyl)-3-methylphenyl)acrylamide] | 187 nM | 94 nM | 0.00181 min⁻¹ | – | –
2 | C=CC(=O)N1CC(C(=O)N2CC(n3cc(-c4cc(OC)c5c(C#N)cnn5c4)cn3)C2)C1 [Example 78, 6-(1-(1-(1-acryloylazetidine-3-carbonyl)azetidin-3-yl)-1H-pyrazol-4-yl)-4-methoxypyrazolo[1,5-a]pyridine-3-carbonitrile] | 536 nM | 98 nM | 0.00146 min⁻¹ | – | –
3 | C=CC(=O)Nc1ccc(C(=O)N2CC[C@H](n3cc(-c4cc(OC)c5c(C#N)cnn5c4)cn3)C2)c(OC)c1 [Example 69, (S)-N-(4-(3-(4-(3-cyano-4-methoxypyrazolo[1,5-a]pyridin-6-yl)-1H-pyrazol-1-yl)pyrrolidine-1-carbonyl)-3-methoxyphenyl)acrylamide] | 311 nM | 77 nM | 0.00422 min⁻¹ | – | –
4 | C=CC(=O)Nc1cccc(C(=O)N2CC[C@@H](n3cc(-c4cc(OC)c5c(C#N)cnn5c4)cn3)C2)c1 [Example 56, (R)-N-(3-(3-(4-(3-cyano-4-methoxypyrazolo[1,5-a]pyridin-6-yl)-1H-pyrazol-1-yl)pyrrolidine-1-carbonyl)phenyl)acrylamide] | 182 nM | 135 nM | 0.00181 min⁻¹ | – | –
5 | C=CC(=O)N1CC[C@H](C(=O)N2CC(n3cc(-c4cc(OC)c5c(C#N)cnn5c4)cn3)C2)C1 [Example 76, (S)-6-(1-(1-(1-acryloylpyrrolidine-3-carbonyl)azetidin-3-yl)-1H-pyrazol-4-yl)-4-methoxypyrazolo[1,5-a]pyridine-3-carbonitrile] | 1900 nM | 409 nM | 0.0007 min⁻¹ | – | –
6 | C=CC(=O)Nc1cccc(C(=O)N2CCC[C@@H](n3cc(-c4cc(OC)c5c(C#N)cnn5c4)cn3)C2)c1 [Example 24, (R)-N-(3-(3-(4-(3-cyano-4-methoxypyrazolo[1,5-a]pyridin-6-yl)-1H-pyrazol-1-yl)piperidine-1-carbonyl)phenyl)acrylamide] | 435 nM | 310 nM | 0.0025 min⁻¹ | – | –
7 | C=CC(=O)N1CC(C)(CN2CC(n3ncc(-c4cc(OC)c5c(C#N)cnn5c4)c3C)C2)C1 [Example 93, 6-(1-(1-((1-acryloyl-3-methylazetidin-3-yl)methyl)azetidin-3-yl)-5-methyl-1H-pyrazol-4-yl)-4-methoxypyrazolo[1,5-a]pyridine-3-carbonitrile] | – | 482 nM | 0.0012 min⁻¹ | 1910 nM | 174 nM
8 | C=CC(=O)Nc1ccc(C(=O)N2CC[C@H](n3cc(-c4cc(OC)c5c(C#N)cnn5c4)cn3)C2)cc1 [Example 66, (S)-N-(4-(3-(4-(3-cyano-4-methoxypyrazolo[1,5-a]pyridin-6-yl)-1H-pyrazol-1-yl)pyrrolidine-1-carbonyl)phenyl)acrylamide] | 82 nM | 72 nM | 0.00332 min⁻¹ | – | –
9 | C=CC(=O)Nc1ccc(C(=O)N2CC[C@H](n3cc(-c4cc(OC)c5c(C#N)cnn5c4)cn3)C2)cc1C [Example 70, (S)-N-(4-(3-(4-(3-cyano-4-methoxypyrazolo[1,5-a]pyridin-6-yl)-1H-pyrazol-1-yl)pyrrolidine-1-carbonyl)-2-methylphenyl)acrylamide] | 104 nM | 199 nM | 0.00278 min⁻¹ | – | –
10 | C=CC(=O)N1CC(CN2CC(n3ncc(-c4cc(OC)c5c(C#N)cnn5c4)c3C)C2)C1 [Example 92] | – | 444 nM | 0.00191 min⁻¹ | 2530 nM | 205 nM
11 | C=CC(=O)Nc1ccc(C(=O)N2CCC(n3cc(-c4cc(OC)c5c(C#N)cnn5c4)cn3)CC2)cc1 [Example 177, N-(4-(4-(4-(3-cyano-4-methoxypyrazolo[1,5-a]pyridin-6-yl)-1H-pyrazol-1-yl)piperidine-1-carbonyl)phenyl)acrylamide] | 57 nM | – | 0.00324 min⁻¹ | – | –

The remaining lines, values ahead:

Row | IC50 [1] | IC50 [2] | FGFR1 Enz kobs [3] | IC50 [4] | IC50 [5] | SMILES
12 | 9 nM | 33 nM | 0.00134 min⁻¹ | – | – | C=CC(=O)N1CC(C)(C(=O)N2CCC(n3cc(-c4cc(OC)c5c(C#N)cnn5c4)cn3)CC2)C1 [Example 38, 6-(1-(1-(1-acryloyl-3-methylazetidine-3-carbonyl)piperidin-4-yl)-1H-pyrazol-4-yl)-4-methoxypyrazolo[1,5-a]pyridine-3-carbonitrile]
13 | 10 nM | 32 nM | 0.00168 min⁻¹ | – | – | C=CC(=O)N1CCC(C(=O)N2CCC(n3cc(-c4cc(OC)c5c(C#N)cnn5c4)cn3)CC2)C(F)(F)C1 (stereo not shown) [Example 15, 6-(1-(1-(1-acryloyl-3,3-difluoropiperidine-4-carbonyl)piperidin-4-yl)-1H-pyrazol-4-yl)-4-methoxypyrazolo[1,5-a]pyridine-3-carbonitrile]
14 | 359 nM | 251 nM | 0.00075 min⁻¹ | – | – | C=CC(=O)N1CC[C@@H](C(=O)N2CCC(n3cc(-c4cc(OC)c5c(C#N)cnn5c4)cn3)CC2)C1 [Example 29, (R)-6-(1-(1-(1-acryloylpyrrolidine-3-carbonyl)piperidin-4-yl)-1H-pyrazol-4-yl)-4-methoxypyrazolo[1,5-a]pyridine-3-carbonitrile]
15 | 285 nM | 105 nM | 0.00075 min⁻¹ | – | – | C=CC(=O)N1CC[C@H](C(=O)N2CCC(n3cc(-c4cc(OC)c5c(C#N)cnn5c4)cn3)CC2)C1 [Example 28, (S)-6-(1-(1-(1-acryloylpyrrolidine-3-carbonyl)piperidin-4-yl)-1H-pyrazol-4-yl)-4-methoxypyrazolo[1,5-a]pyridine-3-carbonitrile]
16 | 25 nM | 84 nM | 0.00069 min⁻¹ | – | – | C=CC(=O)N1CCC(C#N)(C(=O)N2CCC(n3cc(-c4cc(OC)c5c(C#N)cnn5c4)cn3)CC2)CC1 [Example 14, 6-(1-(1-(1-acryloyl-4-cyanopiperidine-4-carbonyl)piperidin-4-yl)-1H-pyrazol-4-yl)-4-methoxypyrazolo[1,5-a]pyridine-3-carbonitrile]
17 | 23 nM | 51 nM | 0.00104 min⁻¹ | – | – | C=CC(=O)N1CCC(F)(C(=O)N2CCC(n3cc(-c4cc(OC)c5c(C#N)cnn5c4)cn3)CC2)C1 (stereo not shown) [Example 30, 6-(1-(1-(1-acryloyl-3-fluoropyrrolidine-3-carbonyl)piperidin-4-yl)-1H-pyrazol-4-yl)-4-methoxypyrazolo[1,5-a]pyridine-3-carbonitrile]
18 | 313 nM | 58 nM | 0.00108 min⁻¹ | – | – | C=CC(=O)N1CC(C(=O)N2CC[C@H](n3cc(-c4cc(OC)c5c(C#N)cnn5c4)cn3)C2)C1 [Example 73, (S)-6-(1-(1-(1-acryloylazetidine-3-carbonyl)pyrrolidin-3-yl)-1H-pyrazol-4-yl)-4-methoxypyrazolo[1,5-a]pyridine-3-carbonitrile]
